# Strand notation (5' to 3'): a small letter for the sugar, then the base; units joined by * are phosphorothioate-linked, units joined directly phosphodiester-linked; [ ] holds rarer units or linkages, { } end groups; capitals alone tell only the bases. k = constrained ethyl (cEt); [5mC] = 5-methylcytosine; d = 2'-deoxy (DNA)
# Tested on: human SMAD7 mRNA
# Assay: Antisense inhibition of human SMAD7 mRNA expression in Hep3B cells by 3-10-3 cEt gapmers, 10,000 nM, electroporation (Example 2)
# Type: cell-based
# Details: Hep3B cells, electroporation with 10,000 nM antisense oligonucleotide, approximately 24 hours, SMAD7 mRNA by RT-PCR (RTS5062), relative to untreated control cells
# In short: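 Hep3B, 20,000 cells/well; electroporation, 10,000 nM ASO; ~24 h. Readout: SMAD7 mRNA by qRT-PCR (RTS5062), RIBOGREEN-normalised; % inhibition vs untreated.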
row,Substance,% Inhibition
1,798664 (kG*kG*k[5mC]*d[5mC]*dT*dG*d[5mC]*dG*d[5mC]*dT*d[5mC]*d[5mC]*dG*kG*k[5mC]*kT; antisense) [compound 798664],7%
2,798665 (k[5mC]*kA*kG*dT*d[5mC]*dT*d[5mC]*d[5mC]*d[5mC]*dG*dG*dA*dG*kG*k[5mC]*k[5mC]; antisense) [compound 798665],7%
3,798666 (k[5mC]*kA*kT*dG*d[5mC]*dG*d[5mC]*d[5mC]*dA*dG*dT*d[5mC]*dT*k[5mC]*k[5mC]*k[5mC]; antisense) [compound 798666],33%
4,798667 (kT*kG*kG*d[5mC]*dA*dT*dG*d[5mC]*dG*d[5mC]*d[5mC]*dA*dG*kT*k[5mC]*kT; antisense) [compound 798667],21%
5,798668 (kT*k[5mC]*k[5mC]*dG*dT*dG*dG*d[5mC]*dA*dT*dG*d[5mC]*dG*k[5mC]*k[5mC]*kA; antisense) [compound 798668],45%
6,798669 (k[5mC]*kG*k[5mC]*dT*d[5mC]*d[5mC]*dG*dT*dG*dG*d[5mC]*dA*dT*kG*k[5mC]*kG; antisense) [compound 798669],0%
7,798670 (kG*kG*k[5mC]*dG*dG*d[5mC]*dG*dG*d[5mC]*d[5mC]*d[5mC]*dG*dA*kG*kG*kG; antisense) [compound 798670],44%
8,798671 (antisense kA*kG*k[5mC]*dG*dG*d[5mC]*dG*dG*d[5mC]*dG*dG*d[5mC]*d[5mC]*k[5mC]*kG*kA) [compound 798671],61%
9,798678 (antisense k[5mC]*kG*k[5mC]*dA*d[5mC]*dA*d[5mC]*d[5mC]*dA*dT*dG*dA*dA*kG*kA*kA) [compound 798678],45%
10,798679 (antisense k[5mC]*kT*k[5mC]*d[5mC]*dG*d[5mC]*dA*d[5mC]*dA*d[5mC]*d[5mC]*dA*dT*kG*kA*kA) [compound 798679],32%
11,798680 (antisense k[5mC]*kA*kT*dG*dA*d[5mC]*d[5mC]*dT*d[5mC]*d[5mC]*dG*d[5mC]*dA*k[5mC]*kA*k[5mC]) [compound 798680],31%
12,798681 (antisense kG*kA*kA*d[5mC]*dA*dT*dG*dA*d[5mC]*d[5mC]*dT*d[5mC]*d[5mC]*kG*k[5mC]*kA) [compound 798681],29%
13,798682 (antisense kG*k[5mC]*kT*dA*dA*dG*dG*dA*dG*d[5mC]*dG*dA*dA*k[5mC]*kA*kT) [compound 798682],60%
14,798683 (antisense kG*k[5mC]*k[5mC]*dT*dG*d[5mC]*dT*dA*dA*dG*dG*dA*dG*k[5mC]*kG*kA) [compound 798683],51%
15,798684 (antisense k[5mC]*kG*kT*dT*dT*dG*d[5mC]*d[5mC]*dT*dG*d[5mC]*dT*dA*kA*kG*kG) [compound 798684],51%
16,798693 (antisense kG*k[5mC]*k[5mC]*dG*dG*dG*d[5mC]*dG*d[5mC]*dA*d[5mC]*dG*dG*k[5mC]*kT*k[5mC]) [compound 798693],0%
17,798694 (antisense kG*kT*k[5mC]*d[5mC]*dT*d[5mC]*dG*d[5mC]*d[5mC]*dG*d[5mC]*d[5mC]*dG*kG*kG*k[5mC]) [compound 798694],0%
18,798695 (antisense kT*kG*k[5mC]*dG*d[5mC]*d[5mC]*d[5mC]*dT*d[5mC]*d[5mC]*dT*d[5mC]*d[5mC]*kT*k[5mC]*kG) [compound 798695],35%
19,798697 (antisense kA*k[5mC]*k[5mC]*dT*d[5mC]*d[5mC]*d[5mC]*d[5mC]*d[5mC]*dT*dG*d[5mC]*dG*k[5mC]*k[5mC]*k[5mC]) [compound 798697],23%
20,798698 (antisense kA*kG*k[5mC]*dT*d[5mC]*dG*d[5mC]*d[5mC]*dT*d[5mC]*d[5mC]*dT*d[5mC]*k[5mC]*kT*k[5mC]) [compound 798698],57%
21,798699 (antisense k[5mC]*kG*k[5mC]*dA*dG*d[5mC]*dT*d[5mC]*dG*d[5mC]*d[5mC]*dT*d[5mC]*k[5mC]*kT*k[5mC]) [compound 798699],51%
22,798700 (antisense k[5mC]*k[5mC]*k[5mC]*d[5mC]*dG*d[5mC]*dA*dG*d[5mC]*dT*d[5mC]*dG*d[5mC]*k[5mC]*kT*k[5mC]) [compound 798700],52%
23,798701 (antisense k[5mC]*kT*kT*d[5mC]*dT*d[5mC]*d[5mC]*d[5mC]*d[5mC]*dG*d[5mC]*dA*dG*k[5mC]*kT*k[5mC]) [compound 798701],23%
24,798702 (antisense k[5mC]*k[5mC]*k[5mC]*d[5mC]*dT*dT*d[5mC]*dT*d[5mC]*d[5mC]*d[5mC]*d[5mC]*dG*k[5mC]*kA*kG) [compound 798702],45%
25,798713 (antisense kG*k[5mC]*k[5mC]*dG*d[5mC]*d[5mC]*dA*d[5mC]*d[5mC]*dG*dG*d[5mC]*d[5mC]*k[5mC]*k[5mC]*kA) [compound 798713],45%
26,798714 (antisense kG*kG*k[5mC]*d[5mC]*dG*d[5mC]*d[5mC]*dG*d[5mC]*d[5mC]*dA*d[5mC]*d[5mC]*kG*kG*k[5mC]) [compound 798714],0%

# Same assay, conditions: Hep3B cells, electroporation with 10,000 nM antisense oligonucleotide, approximately 24 hours, primer probe set RTS5062, relative to untreated control cells
row,Substance,% inhibition of SMAD7 mRNA expression
1,798672 (antisense kG*kG*k[5mC]*dA*dG*dG*dA*dG*d[5mC]*dG*dG*d[5mC]*dG*kG*k[5mC]*kG) [compound 798672],6%
2,798673 (antisense kG*kG*k[5mC]*d[5mC]*d[5mC]*dG*dG*dG*d[5mC]*dA*dG*dG*dA*kG*k[5mC]*kG) [compound 798673],15%
3,798674 (antisense k[5mC]*kA*kG*dG*d[5mC]*dG*dA*d[5mC]*dA*dG*d[5mC]*dA*dG*k[5mC]*kA*kG) [compound 798674],39%
4,798675 (antisense k[5mC]*kA*kG*dG*d[5mC]*dG*d[5mC]*dA*dG*dG*d[5mC]*dG*dA*k[5mC]*kA*kG) [compound 798675],51%
5,798676 (antisense k[5mC]*k[5mC]*kA*dT*dG*dA*dA*dG*dA*dA*dG*dT*d[5mC]*kG*kG*kG) [compound 798676],21%
6,798677 (antisense kA*k[5mC]*kA*d[5mC]*d[5mC]*dA*dT*dG*dA*dA*dG*dA*dA*kG*kT*k[5mC]) [compound 798677],36%
7,798685 (antisense kG*kA*kG*dG*d[5mC]*dG*dA*dG*dG*dA*dG*dA*dA*kA*kA*kG) [compound 798685],58%
8,798688 (antisense kG*kT*k[5mC]*d[5mC]*dT*dG*dA*dA*d[5mC]*dA*dT*dG*d[5mC]*kG*kG*kG) [compound 798688],68%
9,798689 (antisense kG*k[5mC]*k[5mC]*dG*dG*dA*d[5mC]*dG*dA*dG*d[5mC]*dG*d[5mC]*kA*kG*kA) [compound 798689],33%
10,798690 (antisense kG*kG*k[5mC]*dT*d[5mC]*d[5mC]*dT*d[5mC]*d[5mC]*dA*dG*dA*dG*kA*k[5mC]*kG) [compound 798690],29%
11,798691 (antisense k[5mC]*kG*k[5mC]*dA*d[5mC]*dG*dG*d[5mC]*dT*d[5mC]*d[5mC]*dT*d[5mC]*k[5mC]*kA*kG) [compound 798691],42%
12,798692 (antisense kG*kG*kG*d[5mC]*dG*d[5mC]*dA*d[5mC]*dG*dG*d[5mC]*dT*d[5mC]*k[5mC]*kT*k[5mC]) [compound 798692],48%
13,798703 (antisense kG*kT*k[5mC]*d[5mC]*dG*dT*d[5mC]*dG*d[5mC]*d[5mC]*d[5mC]*d[5mC]*dT*kT*k[5mC]*kT) [compound 798703],68%
14,798704 (antisense k[5mC]*kT*kG*dT*d[5mC]*d[5mC]*dG*dT*d[5mC]*dG*d[5mC]*d[5mC]*d[5mC]*k[5mC]*kT*kT) [compound 798704],61%
15,798705 (antisense kG*kG*k[5mC]*dT*dG*dT*d[5mC]*d[5mC]*dG*dT*d[5mC]*dG*d[5mC]*k[5mC]*k[5mC]*k[5mC]) [compound 798705],41%
16,798706 (antisense k[5mC]*kG*kG*d[5mC]*dT*dG*dT*d[5mC]*d[5mC]*dG*dT*d[5mC]*dG*k[5mC]*k[5mC]*k[5mC]) [compound 798706],1%
17,798707 (antisense kG*k[5mC]*kT*d[5mC]*dG*dG*d[5mC]*dT*dG*dT*d[5mC]*d[5mC]*dG*kT*k[5mC]*kG) [compound 798707],74%
18,798708 (antisense k[5mC]*kG*k[5mC]*dT*d[5mC]*dG*dG*d[5mC]*dT*dG*dT*d[5mC]*d[5mC]*kG*kT*k[5mC]) [compound 798708],45%
19,798709 (antisense kT*kG*k[5mC]*dG*d[5mC]*dT*d[5mC]*dG*dG*d[5mC]*dT*dG*dT*k[5mC]*k[5mC]*kG) [compound 798709],2%
20,798710 (antisense k[5mC]*k[5mC]*k[5mC]*d[5mC]*dA*dT*dG*d[5mC]*dG*d[5mC]*dT*d[5mC]*dG*kG*k[5mC]*kT) [compound 798710],54%
21,798711 (antisense k[5mC]*kG*kG*d[5mC]*d[5mC]*d[5mC]*d[5mC]*dA*dT*dG*d[5mC]*dG*d[5mC]*kT*k[5mC]*kG) [compound 798711],59%
22,798712 (antisense kG*k[5mC]*k[5mC]*dA*d[5mC]*d[5mC]*dG*dG*d[5mC]*d[5mC]*d[5mC]*d[5mC]*dA*kT*kG*k[5mC]) [compound 798712],6%

# Reference: patent US10517889B2, “Modulators of SMAD7 expression” (Ionis Pharmaceuticals, Inc., priority 2017, dated 2019)
